Peptide text beside a SMILES is read from it.
System: Mtb strain H37Rv ATCC 27294
Settings: 24 h

| SMILES | MABA MIC [µM] |
| --- | --- |
| N=C(N)NCCC[C@H](NC(=O)[C@@H]1CCCN1)C(=O)N1CCC[C@H]1C(=O)O [PRP] (H-Pro-Arg-Pro-OH) | >800 |
| N[C@@H](CO)C(=O)NCC(=O)N1CCC[C@H]1C(=O)O [SGP] (H-Ser-Gly-Pro-OH) | >800 |
| N=C(N)NCCC[C@H](NC(=O)[C@@H]1CCCN1C(=O)[C@@H](N)CCCNC(=N)N)C(=O)O [RPR, arginine-proline-arginine] (H-Arg-Pro-Arg-OH) | 200 |
| N=C(N)NCCC[C@H](NC(=O)[C@@H]1CCCN1)C(=O)NCC(=O)O [PRG] (H-Pro-Arg-Gly-OH) | >800 |
| N=C(N)NCCC[C@H](NC(=O)[C@@H](N)CO)C(=O)N1CCC[C@H]1C(=O)O [SRP] (H-Ser-Arg-Pro-OH) | >800 |
| CC(C)[C@H](NC(=O)CN)C(=O)N1CCC[C@H]1C(=O)NCC(=O)O [GVPG, glycine-valine-proline-glycine] (H-GVPG-OH) | 200 |
| C[C@@H](O)[C@H](NC(=O)[C@@H](N)CCC(N)=O)C(=O)N[C@@H](CCC(N)=O)C(=O)O [QTQ] (H-Gln-Thr-Gln-OH) | >800 |
| CC(C)[C@H](NC(=O)[C@@H](NC(=O)[C@@H]1CCCN1)[C@@H](C)O)C(=O)O [PTV] (H-Pro-Thr-Val-OH) | >800 |
| N=C(N)NCCC[C@H](NC(=O)[C@@H]1CCCN1C(=O)[C@@H](N)CO)C(=O)O [SPR] (H-Ser-Pro-Arg-OH) | >800 |

Reference: PMC5569447 (Iranian Journal of Basic Medical Sciences, 2017)
